Laboratory results published in patent publication US4568490A, “Aminopropylaminobleomycin derivatives and process for preparation thereof” (Zaidan Hojin Biseibutsu Kagaku Kenkyu Kai, priority 1981, dated 1986).

Assays:
Hela S3 cells = test: Growth inhibitory activity against Hela S3 cells; type: cell-based; settings: Cu-free form; Hela S3, 3 days incubation with compound
Procedure: The percentage growth inhibition was calculated using the equation: […] wherein A is the ultimate number of cells on the third day from the addition of a test sample, B is the ultimate number of cells in the control (without the addition of test sample), and C is the number of cells on the day of addition of the test sample.

[1] = tested on: Mycobacterium smegmatis ATCC 607; test: Antimicrobial activity, agar plate-cylinder method; type: cell-based; settings: Cu-free form; bleomycin A2 (Cu-free form) standard assumed 1,000 mcg/mg
Procedure: (§1) The activity was assayed against the above test microorganisms by the method of agar plate-cylinder, assuming the potency of bleomycin A2 (Cu-free form), used as standard, to be 1,000 mcg/mg.

[2] = tested on: Lymphocytic leukemia P-388; test: In vivo antitumor activity, murine lymphocytic leukemia P-388; settings: BDF1-SLC mice, i.p. transplant, once daily for 9 days, 30 days observation; T/C more than 130 effective
Procedure: The following data with respect to the testing of a group of the presently claimed substances in vivo according to a standard test method involving murine lymphocytic leukemia P-388 is presented to lend further assurance as to the utility of the compounds as inhibitors of mammalian tumors.
Lymphocytic leukemia P-388 cells (1×10^5 /0.2 ml) were transplanted intraperitoneally into male BDF1 -SLC mice (5 mice/group). Each of the compounds of this invention was diluted with physiological saline to various concentrations. Each dilution was administered at a dose of 0.1 ml/10 g of body weight once daily for 9 days, starting on the day after the day of the transplantation. The mice of the control group were administered physiological saline.
The average number of days that the group receiving the compound of this invention survived was calculated. The figure obtained was divided by the average number of survival days for the control group, and was multiplied by 100 (T/C (%)).
T/C value more than 130 was considered to be effective.

ICR strain mice = test: Pulmonary toxicity (pulmonary fibrosis) in mice, intraperitoneal injection; type: in vivo; settings: 5 mg/kg i.p. once a day for 10 days; for Grade of pulmonary fibrosis, % / Incidence of pulmonary fibrosis, % / Incidence: number of mice suffering from pulmonary fibrosis / Grade: total score of pulmonary fibrosis/total number of test animal: autopsy after 5 weeks; for Incidence: number of mice suffering from pulmonary fibrosis: affected/total mice; for Grade: total score of pulmonary fibrosis/total number of test animal: score 0-6 points; for Grade of pulmonary fibrosis, Ratio / Incidence of pulmonary fibrosis, Ratio: reference of the ratio not stated
How it was run: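 Male ICR mice, 15 weeks old, 9 per group, received 5 mg/kg intraperitoneally once daily for 10 days. They were autopsied after 5 weeks' observation for pulmonary fibrosis incidence and grade: 1, alveolar exudate/septal fibrosis-like change; 2, fibrosis in several areas; 4, scattered fibrosis; 6, fibrosis over >2/3 of area.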

Bacillus subtilis = test: Antimicrobial activity, agar plate-cylinder method; type: cell-based; settings: Cu-free form; bleomycin A2 (Cu-free form) standard assumed 1,000 mcg/mg
Procedure: (1) Antimicrobial activity against Mycobacterium smegmatis ATCC 697 and Bacillus subtilis.
as §1

ICR mice = test: Pulmonary toxicity (pulmonary fibrosis) in mice, intratracheal instillation; type: in vivo; settings: 16 μg/50 μl/mouse intratracheally, sacrificed 4 weeks after instillation; for Grade: total score of pulmonary fibrosis/total number of samples: score 0-6 points
Procedure: Male 15 weeks old ICR mice were used. Sixteen μg/50 μl/mouse of each test sample was intratracheally instilled. The mice were sacrificed 4 weeks after instillation to examine the incidence and grade of pulmonary fibrosis. The evaluation was made by comparing the number of administered mice suffering from pulmonary fibrosis and the grade of the disease.
In Tables 4A and 4B, the grade was numerically rated as follows:
1 point: Accumulation of exudate in pulmonary alveoli and fibrosis-like change in alveolar septum.
2 points: Fibrosis in several areas.
4 points: Scattered fibrosis.
6 points: Fibrosis in more than two-thirds of the total area.

Row | SMILES | 50% growth inhibition concentration (ID50) of Cu--free compound against cultured Hela cell (Hela S3 cells) [µg/mL] | Antimicrobial potency of Cu--free compound, against Mycobacterium smegmatis ATCC 607 [1] [mcg potency per mg] | Max. T/C on Mouse Lymphocytic Leukemia P 388 [2] [%] | Grade of pulmonary fibrosis, % (ICR strain mice) [%] | Incidence of pulmonary fibrosis, % (ICR strain mice) [%] | Incidence: number of mice suffering from pulmonary fibrosis (ICR strain mice) | Grade: total score of pulmonary fibrosis/total number of test animal (ICR strain mice) | Grade of pulmonary fibrosis, Ratio (ICR strain mice) | Incidence of pulmonary fibrosis, Ratio (ICR strain mice) | Antimicrobial potency of Cu--free compound, against Bacillus subtilis (Bacillus subtilis) [mcg potency per mg] | Grade of pulmonary fibrosis, % (ICR mice) [%] | Incidence of pulmonary fibrosis, % (ICR mice) [%] | Incidence: number of mice with pulmonary fibrosis/number of mice (ICR mice) | Grade: total score of pulmonary fibrosis/total number of samples (ICR mice)
1 | Cc1c(N)nc(C(CC(N)=O)NCC(N)C(N)=O)nc1C(=O)NC(C(=O)NC(C)C(O)C(C)C(=O)NC(C(=O)NCCc1nc(-c2nc(C(=O)NCCCN(C)CCCNCC3CCCCCCC3)cs2)cs1)C(C)O)C(OC1OC(CO)C(O)C(O)C1OC1OC(CO)C(O)C(OC(N)=O)C1O)c1cnc[nH]1.Cl.Cl.Cl (stereo not shown) [Compound No. 22] | 0.45 | 22860 | 174 | 0 | 0 | 0/9 | 0/27 | 0.000 | 0.00 | 12300 | – | – | – | –
2 | Cc1c(N)nc(C(CC(N)=O)NCC(N)C(N)=O)nc1C(=O)NC(C(=O)NC(C)C(O)C(C)C(=O)NC(C(=O)NCCc1nc(-c2nc(C(=O)NCCC[N+](C)(C)CCC[N+](C)(C)CCCN(Cc3ccccc3)Cc3ccccc3)cs2)cs1)C(C)O)C(OC1OC(CO)C(O)C(O)C1OC1OC(CO)C(O)C(OC(N)=O)C1O)c1cnc[nH]1 (stereo not shown) [Compound No. 41, 3-{N,N--Dimethyl-N--[3'-(N,N--dimethyl-N--(3"-dibenzylaminopropyl)amino)propyl]amino}propylaminoBLM] | 0.66 | 16000 | 184 | 0 | 0 | 0/9 | 0/27 | 0.00 | 0.00 | 7100 | – | – | – | –
3 | Cc1c(N)nc(C(CC(N)=O)NCC(N)C(N)=O)nc1C(=O)NC(C(=O)NC(C)C(O)C(C)C(=O)NC(C(=O)NCCc1nc(-c2nc(C(=O)NCCC[N+](C)(C)CCC[N+](C)(C)CCCNCC3CCCCCCC3)cs2)cs1)C(C)O)C(OC1OC(CO)C(O)C(O)C1OC1OC(CO)C(O)C(OC(N)=O)C1O)c1cnc[nH]1 (stereo not shown) [Compound No. 42, 3-{N,N--Dimethyl-N--[3'-(N,N--dimethyl-N--(3"-cyclooctylmethylaminopropyl)amino)propyl]amino}propylaminoBLM] | 0.51 | 26000 | 177 | 0 | 0 | 0/9 | 0/27 | 0.00 | 0.00 | 14600 | – | – | – | –
4 | Cc1c(N)nc(C(CC(N)=O)NCC(N)C(N)=O)nc1C(=O)NC(C(=O)NC(C)C(O)C(C)C(=O)NC(C(=O)NCCc1nc(-c2nc(C(=O)NCCCN(C)CCCNCc3ccc(OCc4ccccc4)c(OCc4ccccc4)c3)cs2)cs1)C(C)O)C(OC1OC(CO)C(O)C(O)C1OC1OC(CO)C(O)C(OC(N)=O)C1O)c1cnc[nH]1 (stereo not shown) [compound 15] | 0.36 | 4516 | 165 | 4 | 11 | 1/9 | 1/27 | 0.05 | 0.18 | 1772 | 4 | 13 | 1/8 | 1/24
5 | Cc1c(N)nc(C(CC(N)=O)NCC(N)C(N)=O)nc1C(=O)NC(C(=O)NC(C)C(O)C(C)C(=O)NC(C(=O)NCCc1nc(-c2nc(C(=O)NCCCN(C)CCCN(Cc3ccccc3)Cc3ccccc3)cs2)cs1)C(C)O)C(OC1OC(CO)C(O)C(O)C1OC1OC(CO)C(O)C(OC(N)=O)C1O)c1cnc[nH]1 (stereo not shown) [compound 27, 3-{N--Methyl-N--[3'-(dibenzylamino)propyl]amino}propylaminoBLM] | 0.89 | 14194 | 149 | 7 | 20 | 1/5 | 1/15 | 0.08 | 0.32 | 1138 | 7 | 22 | 2/9 | 2/27
6 | CCCC[N+](CCCC)(CCCNC(=O)c1csc(-c2csc(CCNC(=O)C(NC(=O)C(C)C(O)C(C)NC(=O)C(NC(=O)c3nc(C(CC(N)=O)NCC(N)C(N)=O)nc(N)c3C)C(OC3OC(CO)C(O)C(O)C3OC3OC(CO)C(O)C(OC(N)=O)C3O)c3cnc[nH]3)C(C)O)n2)n1)CCCN(Cc1ccccc1)Cc1ccccc1 (stereo not shown) [compound 38, 3-{N,N--Dibutyl-N--[3'-(dibenzylamino)propyl]amino}propylaminoBLM] | 2.00 | 17910 | 156 | 0 | 0 | 0/9 | 0/27 | 0.00 | 0.00 | 530 | – | – | – | –
7 | Cc1c(N)nc(C(CC(N)=O)NCC(N)C(N)=O)nc1C(=O)NC(C(=O)NC(C)C(O)C(C)C(=O)NC(C(=O)NCCc1nc(-c2nc(C(=O)NCCCN3CCN(CCCNCC4CCCCCCC4)CC3)cs2)cs1)C(C)O)C(OC1OC(CO)C(O)C(O)C1OC1OC(CO)C(O)C(OC(N)=O)C1O)c1cnc[nH]1 (stereo not drawn) [compound 45, 3-[4-(3-Cyclooctylmethylaminopropyl)piperazin-l-yl]propylaminoBLM] | 0.81 | 43000 | 163 | 0 | 0 | 0/9 | 0/27 | 0.00 | 0.00 | 15100 | – | – | – | –
8 | CC[N+](CC)(CCCNCCc1ccc(Cl)cc1)CCCNC(=O)c1csc(-c2csc(CCNC(=O)C(NC(=O)C(C)C(O)C(C)NC(=O)C(NC(=O)c3nc(C(CC(N)=O)NCC(N)C(N)=O)nc(N)c3C)C(OC3OC(CO)C(O)C(O)C3OC3OC(CO)C(O)C(OC(N)=O)C3O)c3cnc[nH]3)C(C)O)n2)n1 (stereo not shown) [compound 46, 3-{N,N--Diethyl-N--[3'-(2"-p-chlorophenylethylamino)propyl]amino}propylaminoBLM] | 0.52 | 17480 | 150 | 0 | 0 | 0/9 | 0/27 | 0.00 | 0.00 | 13310 | – | – | – | –
